Laboratory results published in patent US12559789B2, “Method of targeting patient-specific oncogenes in extrachromosomal DNA to treat glioblastoma” (The Jackson Laboratory, priority 2017, dated 2026).
Entries after “also recorded” stand apart in the source; their conditions may differ.

How the values were obtained:
Format in all cases: in vivo, mouse
HF3035 PDX = assay: Survival of HF3035 PDX mice treated with capmatinib (Kaplan-Meier, log-rank); conditions: single agent, 30 mg/kg daily oral doses, log-rank test
[1] = LC-MS/MS quantitation of capmatinib in plasma and tumor tissue of HF3077 PDX (brain penetrance); conditions: 2 h after the last 30 mg/kg oral dose
Procedure: To evaluate brain penetrance of capmatinib, the inventors drew blood samples two hours after administration of the last capmatinib 30 mg/kg dose, sacrificed the animals, harvested brains, and froze 2 mm coronal sections in OCT. The inventors dissected tumor tissue from the frozen blocks. The inventors determined capmatinib concentration in homogenized tumor tissue and plasma for three treated animals and one control was quantified by LC-MS/MS. For mouse plasma sample analysis, the inventors precipitated 25 μL of each sample with 200 μL of acetonitrile. This suspension was vortexed for 30 min and centrifuged at 4k rpm for 15 min, after which 100 μL of the extract was aliquoted and mixed with 200 μL of acetonitrile/water (1/2, v/v) prior to LC-MS/MS analysis. The extracted plasma samples were analyzed on a Waters Acquity UPLC system coupled with a Waters Xevo TQ-S triple quadrupole mass spectrometer operated at positive mode. The capillary voltage was set to 0.5 kv and collision energy to 32 eV. […] The mobile phase A was 0.1% acetic acid/water and B was 0.1% acetic acid/acetonitrile. The LC gradient was 10% B (0-0.3 min), 10-95% B (0.3-1.3 min), 95% B (1.3-1.7 min), 10% B (1.7-2.0 min) and the flow rate was 0.5 mL/min. The column temperature was 40° C. The injection volume was 2 μL. […] The tissue homogenates were analyzed by using the same method as described above.

HF3077 PDX = assay: Survival of orthotopic HF3077 PDX mice treated with capmatinib (Kaplan-Meier, log-rank); conditions: single agent, 30 mg/kg daily oral doses, log-rank test, significance P<0.05
Text: Orthotopic xenografts: Following IACUC guidelines in an institutionally approved animal use protocol, the inventors implanted the GBM neurosphere cell suspensions into 8-week old female nude mice (NCRNU, Taconic Farms) (i.e. immunodeficient mice) using the protocol described in Berezovsky, A. D. et al. SOX2 promotes malignancy in glioblastoma by regulating plasticity and astrocytic differentiation, Neoplasia 16, 193-206 e25 (2014), which is incorporated herein by reference. It should be noted that other “nude” or “immunodeficient” mice may be used in the present invention, as would be apparent to those skilled in the art. Thus, the present invention is not limited to the specific nude mice used in this experiment. […] Animals were monitored daily by an observer blinded to the group allocation and sacrificed upon first signs of neurological deficit or weight loss greater than 20%. […]
The inventors treated HF3077 PDXs with capmatinib (purchased from Matrix Scientific Products (Columbia, SC)) suspensions in 0.5% methylcellulose/0.1% Tween 80 were prepared every week and administered by oral gavage using a 20 g×1.5″ gavage needle (Cadence) at a dose of 30 mg/kg once a day (5 days/week) until the end of the study. […] Animals were monitored daily and sacrificed upon first signs of neurological deficit or weight loss greater than 20%. […]

CNC(=O)c1ccc(-c2cnc3ncc(Cc4ccc5ncccc5c4)n3n2)cc1F [capmatinib, Capmatinib]
survival of HF3035 PDX (HF3035 PDX): did not increase survival
concentration of drug in the brain tumor [1]: relatively low concentration
survival of HF3077 PDX (HF3077 PDX): significant survival benefit; also recorded: increases survival of HF3077 PDX
